Assay results reported in ChEMBL document CHEMBL1201862, “PubChem BioAssay data set” (2004).
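Where inhibition never reached the appropriate level, the endpoint shown equals the highest concentration tested. Otherwise, values were interpolated linearly from a five-concentration, 48-hour dose response in 96-well plates. GI50 marks 50% less growth.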 Activity calls are given as the source filed them. No stated cut-off is given here; in the data, active = GI50 up to about 1.1 µM and inactive = higher.

Columns and labels:
Assay in all cases: NCI-60 cell line screen, 48 h
[1] = tested on: PC-3
[2] = tested on: HCC 2998
[3] = tested on: OVCAR-3
[4] = tested on: NCI-H23
[5] = tested on: ACHN
[6] = tested on: SK-MEL-5
[7] = tested on: HT-29
[8] = tested on: SR
[9] = tested on: NCI/ADR-RES
[10] = tested on: A498
[11] = tested on: HL-60
[12] = tested on: BT-549
[13] = tested on: K562
[14] = tested on: MDA-N
[15] = tested on: HCT-116
[16] = tested on: SK-MEL-28
[17] = tested on: DU-145
[18] = tested on: RXF 393
[19] = tested on: LOX IMVI
[20] = tested on: SF-268

Measured: GI50

CCCCCC(CO)C(O)(C(F)(F)F)C(F)(F)F (stereo not given)
inactive: [1] > 10 µM | [2] > 10 µM | [3] > 10 µM | [4] > 10 µM | [5] > 10 µM | [6] > 10 µM | [7] > 10 µM | [8] > 10 µM | [9] > 10 µM | [10] > 10 µM | [11] > 10 µM | [12] > 10 µM | [13] > 10 µM | [14] > 10 µM | [15] > 10 µM | [16] > 10 µM | [17] > 10 µM | [18] > 10 µM | [19] > 10 µM | [20] > 10 µM

COc1ccc(-c2c(C#N)c(N)nc(S)c2C#N)cc1
inactive: [1] 27.5 µM | [2] 23.4 µM | [3] 64.7 µM | [4] 38.3 µM | [5] 71 µM | [6] 26.2 µM | [7] 48.6 µM | [8] 18.3 µM | [9] 50 µM | [10] > 100 µM | [11] 23.1 µM | [12] 24.9 µM | [13] 26.5 µM | [14] 11.5 µM | [15] 29.4 µM | [16] 37.7 µM | [17] 34.8 µM | [18] 33.2 µM | [19] 43.5 µM | [20] 30.7 µM

O=P(O)(O)OP(=O)(O)O
inactive: [1] > 100 µM | [2] > 100 µM | [3] > 100 µM | [4] > 100 µM | [5] > 100 µM | [6] > 100 µM | [7] > 100 µM | [8] > 100 µM | [9] > 100 µM | [10] > 100 µM | [11] > 100 µM | [12] > 100 µM | [13] > 100 µM | [14] > 100 µM | [15] > 100 µM | [16] > 100 µM | [17] > 100 µM | [18] > 100 µM | [19] > 100 µM | [20] > 100 µM

O=C(NC(Cc1c[nH]c2ccccc12)C(=O)O)/C(=C/c1ccccc1)NC(=O)c1ccccc1 (stereo not given)
inactive: [1] 50.5 µM | [2] 78.3 µM | [3] 38.4 µM | [4] > 83.2 µM | [5] > 94.8 µM | [6] 37 µM | [7] 66.7 µM | [8] > 100 µM | [9] 36.6 µM | [10] > 81.8 µM | [11] 77.6 µM | [12] 43.8 µM | [13] 59.7 µM | [14] 82.4 µM | [15] > 80.4 µM | [16] > 88.9 µM | [17] 79.8 µM | [18] 34.8 µM | [19] > 100 µM | [20] > 100 µM

O=C1c2ccccc2/C=C\C(c2ccccc2)=N/N1c1ccccc1Cl
inactive: [1] 6.73 µM | [2] 30.3 µM | [3] 27.5 µM | [4] 28.8 µM | [5] 26.4 µM | [6] 13.4 µM | [7] 17.5 µM | [8] > 10 µM | [9] 15.9 µM | [10] 26.5 µM | [11] 12.7 µM | [12] 10.9 µM | [13] 5.26 µM | [14] 3.44 µM | [15] 28.1 µM | [16] 24 µM | [17] 49.1 µM | [18] 19.2 µM | [19] 25.1 µM | [20] 54.2 µM

Cc1c(C)c(S(=O)(=O)N(CCCCCCN)OCCCN)c(C)c2c1OC(C)(C)CC2
inactive: [1] 3.7 µM | [2] 2.04 µM | [3] 2.44 µM | [4] 8.83 µM | [5] 8.99 µM | [6] 10.6 µM | [7] 5.6 µM | [8] 5.92 µM | [9] 15.5 µM | [10] 16.1 µM | [11] 1.22 µM | [12] 13.3 µM | [13] 4.53 µM | [14] 2.81 µM | [15] 1.97 µM | [16] 17.6 µM | [17] 26.4 µM | [18] 4.13 µM | [19] 2.4 µM | [20] 6.93 µM

CC(O)(C(=O)N(O)c1ccc(Cl)cc1)c1ccc(Cl)cc1 (stereo not given)
inactive: [1] 22.1 µM | [2] 13 µM | [3] 25.2 µM | [4] 23.4 µM | [5] 18.7 µM | [6] 18.7 µM | [7] 31 µM | [8] 13.8 µM | [9] 25.6 µM | [10] 25.5 µM | [11] 14.7 µM | [12] 21.6 µM | [13] 17.3 µM | [14] 41.1 µM | [15] 28.4 µM | [16] 33.3 µM | [17] 34.4 µM | [18] 26.8 µM | [19] 24.4 µM | [20] 23.7 µM
